Experimental data taken from US11931322B2, “Solubilizate with curcumin and optionally at least one other active substance” (priority 2017, dated 2024).

Key:
Format in all cases: in vivo, Wistar rats
[1] = tested on: total antioxidant capacity (TAC); experiment: Total antioxidant capacity (TAC) in the serum of arthritic rats; settings: for TAC: serum of arthritic rats, n=8, mean ± SEM
Procedure: (§1) Prof. Dr. […] from the University of Cairo, Faculty of Pharmacy at the Institute for Pharmacology, performed studies on the anti-inflammatory effect of curcumin and combinations of curcumin with Boswellia or xanthohumol, in each case in the native form and in the solubilized form according to the disclosure. Anti-inflammatory markers and antioxidant capacity were determined. Female Wistar rats with a body weight between 150 and 200 g were exposed to adjuvant induced arthritis according to Pearson et al. (1956). At day 0, the animals were administered 0.1 ml of Freund's Adjuvant (FCA) in the right hind paw, by subplantar injection. The animals were randomly divided into 12 groups of 8 animals each. All extracts or solubilizates were administered orally once daily from day 0 to day 21 following the vaccination with the adjuvant. After day 21, the animals were killed and serum samples were prepared and stored at -80° C. Measurements were made of myeloperoxidase (MPO), C-reactive protein (CRP), total antioxidant capacity (TAC), and thiobarbituratic acid reactive substances (TBARS). Oxidative stress is one of the major factors contributing to joint destruction in rheumatoid arthritis (RA). An increase in the production of so-called “reactive oxygen species (ROS)” leads to a reduced supply of endogenous antioxidants and ultimately results in the destruction of cells. The neutrophil granulocytes released in the rheumatoid joint produce free oxygen radicals which cause increased formation of lipid peroxides manifesting in an increase in serum TBARS. Therefore, an increase in antioxidant status represented by an increase in TAC can be used as an indication of protection against the development of degenerative inflammatory processes. There is an inverse relationship between the levels of TAC and TBARS, a high level of antioxidant capacity TAC corresponds to a low TBARS concentration. The table contains data on the effect of curcumin and Boswellia in native and in solubilized form, administered either alone or in combination with diclofenac in a dose of 3 mg per kg body weight once daily for 21 days, on the antioxidant capacity TAC and the thiobarbituric acid reactive substances TBARS in the serum of arthritic rats (n=8). Indicated are mean values±standard error of the mean (SEM).

[2] = tested on: thiobarbituric acid reactive substances (TBARS); experiment: Thiobarbituric acid reactive substances (TBARS) in the serum of arthritic rats; settings: for TBARS: serum of arthritic rats, n=8, mean ± SEM
Procedure: as §1

myeloperoxidase (MPO) = experiment: Serum myeloperoxidase (MPO) in adjuvant-induced arthritic rats; settings: both dosages (5 and 10 mg/kg), FIG. 2
Procedure: (§2) Prof. Dr. […] from the University of Cairo, Faculty of Pharmacy at the Institute for Pharmacology, performed studies on the anti-inflammatory effect of curcumin and combinations of curcumin with Boswellia or xanthohumol, in each case in the native form and in the solubilized form according to the disclosure. Anti-inflammatory markers and antioxidant capacity were determined. Female Wistar rats with a body weight between 150 and 200 g were exposed to adjuvant induced arthritis according to Pearson et al. (1956). At day 0, the animals were administered 0.1 ml of Freund's Adjuvant (FCA) in the right hind paw, by subplantar injection. The animals were randomly divided into 12 groups of 8 animals each. Group 1 was the control group. Group 2 received diclofenac as a reference drug in a dose of 3 mg/kg body weight. Group 3 received native curcumin in a dose of 5 mg/kg body weight. Group 4 received curcumin solubilized according to the disclosure in a dose of 5 mg/kg body weight. Group 5 received native curcumin in a dose of 10 mg/kg body weight, and Group 6 received curcumin solubilized in the same dose. Group 7 received native xanthohumol in a dose of 5 mg/kg body weight, and Group 8 received solubilized xanthohumol in the same dose. Group 9 received a mixture of native curcumin in a dose of 5 mg/kg body weight and native Boswellia extract in a dose of 10 mg/kg body weight. […]

C-reactive protein (CRP) = experiment: Serum C-reactive protein (CRP) in adjuvant-induced arthritic rats; settings: 5 and 10 mg/kg, FIG. 1a
Procedure: as §2

[3] = 10 mg/kg once daily for 21 days
[4] = arthritic rats, both dosages considered

## O=C(O)Cc1ccccc1Nc1c(Cl)cccc1Cl [Diclofenac, diclofenac]
[1]; 3 mg/kg once daily for 21 days
  TAC: 82.08 ± 2.96 nmol/µL
[2]; 3 mg/kg once daily for 21 days
  TBARS: 7.93 ± 0.84 nmol/L

## COc1cc(/C=C/C(=O)CC(=O)/C=C/c2ccc(O)c(OC)c2)ccc1O [Native curcumin, curcumin]
[1]; 5 mg/kg once daily for 21 days
  TAC: 60.31 ± 3.25 nmol/µL
[1]; [3]
  TAC: 68.41 ± 1.09 nmol/µL
[1]; [4]
  effect on TAC (in words): no significant effect
Myeloperoxidase (MPO)
  effect on MPO concentration (in words): no effect on the MPO levels
[2]; 5 mg/kg once daily for 21 days
  TBARS: 11.64 ± 0.39 nmol/L
[2]; [3]
  TBARS: 13.18 ± 0.46 nmol/L
[2]; [4]
  effect on the TBARS level (in words): no significant effect
C-reactive protein (CRP)
  effect on rat serum CRP levels (in words): inhibited rat serum CRP levels in a dose-dependent manner
